Reference: ChEMBL document CHEMBL5108042, “Design and synthesis of eugenol/isoeugenol glycoconjugates and other analogues as antifungal agents against Aspergillus fumigatus” (RSC Med Chem, 2022)
In brackets after ≈: the same amount, converted by molar mass. Activity calls are given as the source filed them. The calls are words filed in the database; no cut-off is given here.

Legend:
[1] = system: Aspergillus fumigatus; assay: Antifungal activity against Aspergillus fumigatus ATCC 46645 assessed as inhibition of fungal growth incubated for 5 days by CLSI protocol based microbroth dilution method; format: functional, organism-based; details: ATCC 46645, 120 h
[2] = system: Aspergillus fumigatus; assay: Antifungal activity against Aspergillus fumigatus ATCC 46645 assessed as inhibition of conidial and mycelial growth incubated for 5 days by CLSI protocol based microbroth dilution method; format: functional; details: ATCC 46645, 120 h, time 5 day
[3] = Cytotoxicity against human L132 cells assessed as inhibition of cell growth; format: toxicity, cell-based
[4] = system: Aspergillus fumigatus; assay: Antifungal activity against Aspergillus fumigatus ATCC 46645 assessed as decrease in DHN-melanin content by measuring absorption spectra at optical density 275 nm at IC50 concentration incubated for 5 days by UV-vis spectrophotometric analysis; format: functional; details: time 5 day
[5] = Selectivity index, ratio of CC50 for cytotoxicity against human L-132 cells assessed as inhibition of cell growth to IC50 for antifungal activity against Aspergillus fumigatus ATCC 46645 assessed as inhibition of fungal growth; format: toxicity, cell-based; details: read-out: Ratio IC50
[6] = Cytotoxicity against human L132 cells assessed as inhibition of cell growth incubated for 24 hrs by MTT assay; format: toxicity, cell-based
[7] = system: Aspergillus fumigatus; assay: Antifungal activity against Aspergillus fumigatus ATCC 46645 assessed as decrease in conidia formation at IC50 concentration by UV-vis spectrophotometric analysis; format: functional, organism-based
[8] = system: Aspergillus fumigatus; assay: Antifungal activity against Aspergillus fumigatus ATCC 46645 assessed as decrease in DHN-melanin content at IC50 concentration incubated for 5 days by UV-vis spectrophotometric analysis; format: functional, organism-based; details: time 5.0 day
[9] = system: Aspergillus fumigatus; assay: Antifungal activity against Aspergillus fumigatus ATCC 46645 assessed as smooth conidial surface with absence of protrusions at IC50 concentration by scanning electron microscopic analysis; format: functional, organism-based
[10] = system: Aspergillus fumigatus; assay: Antifungal activity against Aspergillus fumigatus ATCC 46645 assessed as decrease in number of conidia at IC50 concentration by scanning electron microscopic analysis; format: functional, organism-based
[11] = system: Aspergillus fumigatus; assay: Antifungal activity against Aspergillus fumigatus ATCC 46645 assessed as absence of melanin layer at IC50 concentration by transmission electron microscopic analysis; format: functional, organism-based
[12] = system: Cell membrane; assay: Induction of cell membrane disruption in Aspergillus fumigatus ATCC 46645 assessed as accumulation of cytoplasmic content at IC50 concentration by transmission electron microscopic analysis; format: subcellular
[13] = system: Aspergillus fumigatus; assay: Antibiofilm activity against Aspergillus fumigatus ATCC 46645 at 69.53 to 86.92 uM incubated for 24 hrs by MTT assay; format: functional, organism-based; details: dose 69.53-86.92 µM
[14] = system: Aspergillus fumigatus; assay: Antibiofilm activity against Aspergillus fumigatus ATCC 46645 assessed as absence of ECM on hyphae at 69.53 to 86.92 uM; format: functional, organism-based; details: dose 69.53-86.92 µM
[15] = system: Aspergillus fumigatus; assay: Antibiofilm activity against Aspergillus fumigatus ATCC 46645 at 243.60 to 304.5 uM incubated for 24 hrs by MTT assay; format: functional, organism-based; details: dose 243.6-304.5 µM
[16] = system: Aspergillus fumigatus; assay: Antibiofilm activity against Aspergillus fumigatus ATCC 46645 assessed as absence of ECM on hyphae at 243.60 to 304.5 uM; format: functional, organism-based; details: dose 243.6-304.5 µM

In the case of `C/C=C/c1ccc(OCc2cn([C@@H]3O[C@H](COC(=O)c4ccccc4)[C@H](OC(=O)c4ccccc4)[C@H](OC(=O)c4ccccc4)[C@H]3OC(=O)c3ccccc3)nn2)c(OC)c1`, the IC50 [1] is reported as 15.2 µM and the MIC [2] is reported as > 20 µM.

In the case of `C=CCc1ccc(OCc2cn(C[C@@H](O)Cc3ccc(O[Si](C)(C)C(C)(C)C)c(OC)c3)nn2)c(OC)c1`, the IC50 [1] is reported as > 25 µM and the MIC [2] is reported as > 20 µM.

In the case of `COc1cc(C[C@H](O)CN=[N+]=[N-])ccc1O[Si](C)(C)C(C)(C)C`, the IC50 [1] is reported as > 25 µM and the MIC [2] is reported as > 20 µM.

With `C/C=C/c1ccc(OCc2cn(C[C@@H](O)Cc3ccc(O[Si](C)(C)C(C)(C)C)c(OC)c3)nn2)c(OC)c1` the IC50 [1] was > 25 µM and the MIC [2] was > 20 µM.

With `C/C=C/c1ccc(OCc2cn([C@@H]3O[C@H](COC(C)=O)[C@@H](O[C@H]4O[C@H](COC(C)=O)[C@@H](OC(C)=O)[C@H](OC(C)=O)[C@H]4OC(C)=O)[C@H](OC(C)=O)[C@H]3OC(C)=O)nn2)c(OC)c1` the IC50 [1] was 14.5 µM and the MIC [2] was > 20 µM.

Molecule `C[C@@H]1[C@H](O)[C@@H](C)/C=C/C=C/C=C/C=C/C=C/C=C/C=C/[C@H](O[C@@H]2O[C@H](C)[C@@H](O)[C@H](N)[C@@H]2O)C[C@@H]2O[C@](O)(C[C@@H](O)C[C@@H](O)[C@H](O)CC[C@@H](O)C[C@@H](O)CC(=O)O[C@H]1C)C[C@H](O)[C@H]2C(=O)O` [AMPHOTERICIN B] has an IC50 [1] of 1.08 µM, an MIC [2] of 0.216 µM (≈ 0.2 µg/mL) and a CC50 [3] of 5.4 µM. The Activity [4] was 1.126.

For `C#CCOc1ccc(CC=C)cc1OC`, the IC50 [1] was > 25 µM and the MIC [2] was > 20 µM.

In the case of `C/C=C/c1ccc(OCc2cn([C@@H]3O[C@H](COC(C)=O)[C@H](OC(C)=O)[C@H](OC(C)=O)[C@H]3OC(C)=O)nn2)c(OC)c1`, the IC50 [1] is reported as 10.9 µM and the MIC [2] is reported as > 20 µM.

With `C=CCc1ccc(OCc2cn([C@@H]3O[C@H](CO)[C@@H](O)[C@H](O)[C@H]3O)nn2)c(OC)c1` the IC50 [1] was > 25 µM and the MIC [2] was > 20 µM.

For `C=CCc1ccc(O[Si](C)(C)C(C)(C)C)c(OC)c1`, the IC50 [1] was > 25 µM and the MIC [2] was > 20 µM.

In the case of `C/C=C/c1ccc(OCc2cn(C3O[C@@H](C)[C@H](OC(C)=O)[C@@H](OC(C)=O)[C@H]3OC(C)=O)nn2)c(OC)c1` (some centres not stated), the IC50 [1] is reported as 12.1 µM and the MIC [2] is reported as > 20 µM.

In the case of `CCCc1ccc(OCc2cn(C[C@@H](O)Cc3ccc(O[Si](C)(C)C(C)(C)C)c(OC)c3)nn2)c(OC)c1`, the IC50 [1] is reported as > 25 µM and the MIC [2] is reported as > 20 µM.

With `C=CCc1ccc(OCc2cn([C@@H]3O[C@H](COC(C)=O)[C@@H](O[C@H]4O[C@H](COC(C)=O)[C@@H](OC(C)=O)[C@H](OC(C)=O)[C@H]4OC(C)=O)[C@H](OC(C)=O)[C@H]3OC(C)=O)nn2)c(OC)c1` the IC50 [1] was 14.5 µM and the MIC [2] was > 20 µM.

For `C/C=C/c1ccc(OCc2cn([C@@H]3O[C@H](COC(C)=O)[C@@H](OC(C)=O)[C@H](OC(C)=O)[C@H]3OC(C)=O)nn2)c(OC)c1`, the IC50 [1] was 21.7 µM and the MIC [2] was > 20 µM.

In the case of `CCC(C)n1ncn(-c2ccc(N3CCN(c4ccc(OCC5COC(Cn6cncn6)(c6ccc(Cl)cc6Cl)O5)cc4)CC3)cc2)c1=O` (configuration not stated) [ITRACONAZOLE], the MIC [2] is reported as 0.552 µM (≈ 0.39 µg/mL).

For `CCCc1ccc(OCc2cn([C@@H]3O[C@H](CO)[C@H](O)[C@H](O)[C@@H]3O)nn2)c(OC)c1`, the IC50 [1] was > 25 µM and the MIC [2] was > 20 µM.

With `C#CCOc1ccc(CCC)cc1OC` the IC50 [1] was > 25 µM and the MIC [2] was > 20 µM.

`C=CCc1ccc(OCc2cn([C@@H]3O[C@H](COC(C)=O)[C@@H](OC(C)=O)[C@H](OC(C)=O)[C@H]3OC(C)=O)nn2)c(OC)c1` showed a selectivity ratio [5] of 8.01, a CC50 at 24 h [6] of 43.5 µM and an IC50 [1] of 5.42 µM. The MIC [2] was 10.9 µM (≈ 6.25 µg/mL), the Activity [7] was “Active” and the Activity [8] was “Active”. For the same molecule, the Activity [4] was 0.295, the Activity [9] was “Active” and the Activity [10] was “Active”. The Activity [11] was “Active”, the Activity [12] was “Active” and the Activity [13] was “Active”. The Activity [14] was “Active”.

In the case of `C=CCc1ccc(OCc2cn([C@@H]3O[C@H](COC(C)=O)[C@@H](O[C@@H]4O[C@H](COC(C)=O)[C@H](OC(C)=O)[C@H](OC(C)=O)[C@H]4OC(C)=O)[C@H](OC(C)=O)[C@H]3OC(C)=O)nn2)c(OC)c1`, the IC50 [1] is reported as 14.5 µM and the MIC [2] is reported as > 20 µM.

Work on `CCCc1ccc(O)c(OC)c1` yielded a selectivity ratio [5] of 16, a CC50 at 24 h [6] of 150 µM and an IC50 [1] of 9.39 µM. For the same molecule, the MIC [2] was 15.5 µM (≈ 2.58 µg/mL), the Activity [7] was “Active” and the Activity [8] was “Active”. The Activity [4] was 0.176, the Activity [9] was “Active” and the Activity [10] was “Active”. For the same molecule, the Activity [11] was “Active”, the Activity [12] was “Active” and the Activity [15] was “Active”. The Activity [16] was “Active”.

For `CCCc1ccc(OCc2cn([C@@H]3O[C@H](COC(C)=O)[C@@H](OC(C)=O)[C@H](OC(C)=O)[C@H]3OC(C)=O)nn2)c(OC)c1`, the IC50 [1] was > 25 µM and the MIC [2] was > 20 µM.

In the case of `C#CCOc1ccc(/C=C/C)cc1OC`, the IC50 [1] is reported as > 25 µM and the MIC [2] is reported as > 20 µM.

For `C/C=C/c1ccc(O)c(OC)c1`, the IC50 [1] was 1900 µM, the MIC [2] was 3800 µM (≈ 624 µg/mL) and the Activity [4] was 0.399. For the same molecule, the Activity [9] was “Active”, the Activity [10] was “Active” and the Activity [11] was “Active”. The Activity [12] was “Active”.

For `C=CCc1ccc(OCc2cn([C@@H]3O[C@H](COC(C)=O)[C@H](OC(C)=O)[C@H](OC(C)=O)[C@H]3OC(C)=O)nn2)c(OC)c1`, the IC50 [1] was 10.9 µM and the MIC [2] was > 20 µM.

For `C/C=C/c1ccc(OCc2cn([C@@H]3O[C@H](COC(C)=O)[C@@H](O[C@@H]4O[C@H](COC(C)=O)[C@H](OC(C)=O)[C@H](OC(C)=O)[C@H]4OC(C)=O)[C@H](OC(C)=O)[C@H]3OC(C)=O)nn2)c(OC)c1`, the IC50 [1] was 14.5 µM and the MIC [2] was > 20 µM.

In the case of `COc1cc(C[C@H](O)CO)ccc1O[Si](C)(C)C(C)(C)C`, the IC50 [1] is reported as > 25 µM and the MIC [2] is reported as > 20 µM.

`C=CCc1ccc(O)c(OC)c1` [EUGENOL] gave an IC50 [1] of 1900 µM and an MIC [2] of 3800 µM (≈ 624 µg/mL).
